Results: patent US20090306165A1, “DIPEPTIDE COMPOUNDS CONTAINING D-HISTIDINE” (priority 2006, published 2009)

Tests used:
[1] = distribution in the rat after oral administration; type: in vivo
[2] = pharmacokinetic studies on laboratory animals monitoring plasma carnosine content by liquid chromatography-ESI triple quadrupole mass spectrometry; type: in vivo
[3] = detoxification of alpha, beta-unsaturated carbonyl compounds; details: compared with L-carnosine

Compound: NCCC(=O)N[C@H](Cc1c[nH]cn1)C(=O)O [D-carnosine, β-alanyl-D-histidine]
- distribution in the lung [1]: distributed in the lung
- gastrointestinal absorption [2]: poor gastrointestinal absorption
- detoxification of the alpha, beta-unsaturated carbonyl compounds [3]: performs the same detoxification
